For assay [1], the system named is human B lymphoblasts lacking the TAP genes or with TAP blocked by transduced ICP47. As to the kind of experiment: TAP dependence of the 8-MOP-induced Class I increase (FIG. 4). In kind it is cell-based. Conditions: B lymphoblasts that lacked the TAP genes or had them blocked by transduced ICP47 (both conditions). The method, then: Next, it was determined that the 8-MOP-induced increase in surface Class I molecules is dependent on peptide transport across the endoplasmic reticulum through the transporter associated with […] (TAP) pores. […] The increased immunogenicity of 8MOP treated disease-effector cells was thus shown to involve the augmented catabolism of proteins, leading to the generation of small peptides that are then transported to Class I molecules in the endoplasmic reticulum and then on to the cell surface where they associate with the Class I molecules.

Assay [2] deals with C1R B lymphoblastoid line transduced with the Class I B27 allele. As to the kind of experiment: Class I expression on B27-transduced C1R B lymphoblastoid line, labeled W6/32 monoclonal antibody (FIG. 3). In kind it is cell-based, human. Conditions: for impact on Class I expression: other pharmacologic agents compared with 8-MOP. As for the experimental part:
In order to evaluate the enhanced immunogenicity of 8-MOP treated CTCL cells, a series of human lymphoblast lines was derived. The C1R B lymphoblastoid line, which in its native state expresses no HLA-A or HLA-B surface Class I and only a minute amount of HLA-C molecules was transduced with the Class I B27 allele. This modified cell population, with nearly all of its surface Class I molecules being B27, was exposed to 8MOP and incubated overnight.

The test system of assay [3] is Class I protein on the cell surface. As to the kind of experiment: Class I expression after 8-MOP/UVA, fluorescent antibody, mean fluorescence channel (FIG. 2). It is filed as cell-based. The text has this:
Mean fluorescence channel measurements permit the quantification of the amount of Class I protein on the cell surface, as identified with a fluorescent antibody against the Class I protein.

The subject of assay [4] is C1R human B lymphoblasts displaying B27 Class I complex. Put plainly: Class I MHC level of C1R cells incubated in various containers, cytofluorimeter (FIG. 5). It is filed as cell-based. Conditions: photoactivated 8-MOP in the 2410 bag (no leachable plasticizers), about 24 hours at 37° C.
Method: In the foregoing experiment, C1R human B lymphoblasts, cells molecularly engineered so that they display a readily studied B27 Class I protein complex, were exposed to photoactivated 8-MOP in the presence of various plastic containers. The mean fluorescence intensity was measured in a cytofluorimeter, using monoclonal antibodies specific for the B27 Class I complex.
For assay [5], the system named is Class I molecules on transduced C1R B cells. As to the kind of experiment: Binding of iodinated B27 allele-specific peptide, immunoprecipitation with antibody 4E. It is filed as cell-based, human. Conditions: transduced C1R B cells exposed to 8-MOP. As for the experimental part: To determine if the Class I MHC molecules induced in Example 5 remained functional, i.e., could be loaded with a known B27 allele-specific peptide, iodinated peptide was added under varied conditions.

With `COc1c2occc2cc2ccc(=O)oc12` [8-MOP, 8-methoxypsoralen], in assay [1], the “8-MOP induced increase in Class I molecules” value is reported as “prevented”. For the same molecule, the “Class I expression” value in assay [2] (UVA administered before the addition of 8-MOP, drug not photoactivated) was “only a minor increase”. The “time to peak levels of Class I expression after exposure” value in assay [2] (optimal levels of 8-MOP) turned out to be 20 h. Besides, in assay [2] (photoactivated 8-MOP, optimal levels, overnight incubation), the “increase of Class I expression over background” value was “approximately 3 fold”. In assay [3] (1 joule per cm^2 of UVA and 200 ng/ml of 8-MOP, incubation about 18 hours, versus control cells), the “Class I molecule expression” value was “about doubles”. Further, the “Class I MHC level versus untreated controls” value in assay [4] is recorded as “more than doubled”. In assay [5], the “allele-specific peptide bound versus untreated cell line control” value is on record as “approximately 3 fold” and the “increase in functional Class I molecules per cell” value is > 10,000 functional Class I molecules per cell.
In the case of TNF-α, the “impact on Class I expression” value in assay [2] is on record as “either no or a more limited impact”.
Take `CO[C@@]12[C@H](COC(N)=O)C3=C(C(=O)C(C)=C(N)C3=O)N1C[C@@H]1N[C@@H]12` [mytomycin C]: the “impact on Class I expression” value in assay [2] is “either no or a more limited impact”.
For the molecule `CC[C@H]1CN2CCc3cc(OC)c(OC)cc3[C@@H]2C[C@@H]1C[C@H]1NCCc2cc(OC)c(OC)cc21` [emetine], the “effect on the 8-MOP/UVA-induced increase in Class I expression” value in assay [3] (emetine added to 8-MOP/UVA treated cells) is given as “prevented”.
With “γ-interferon: other pharmacologic agent compared with 8-MOP”, the “impact on Class I expression” value in assay [2] is recorded as “either no or a more limited impact”.
